Assay results: patent US7442706B2, “Methods for treating sarcopenia with a growth hormone secretagogue” (priority 2006, dated 2008)

Experiments:
[1] = system: GH; test: 24-h mean GH levels, blood sampled every 10 minutes for 24 hours, chemiluminescence assay, 2-year placebo-controlled trial; format: in vivo, human; settings: for 24-h mean GH, mean (range) fold-change / 24-h mean GH level in a person: 25 mg p.o. daily; for 24-h mean GH, mean (range) fold-change: N=43, ratio of geometric means; for 24-h mean GH level in a person: baseline 0.37
Method: Sixty-five healthy men and women (±HRT) ages 60-81 years were enrolled in a 2-year study of MK-677 (25 mg p.o. daily) or placebo. In addition to GH and IGF-I, the primary endpoints were fat-free mass (FFM), by 4-compartment model and DXA, and abdominal visceral fat (AVF) by CT. Secondary endpoints included isokinetic strength, function and quality of life (QoL); all endpoints were assessed at baseline and every 6 months, with frequent monitoring for adverse effects.
This NIH-funded study was approved by the General Clinical Research Center (GCRC) and the University of Virginia Institutional Review Boards. All subjects gave written informed consent. A two-year, double-blind, placebo-controlled modified crossover trial of once-daily administration of an oral GH secretogogue (MK-677, 25 mg) to healthy older adults was performed.
During the first year, subjects were randomized to MK-677 or placebo treatment. In each of 3 groups (23 men, 25 women on hormone replacement therapy (HRT) and 17 women not on HRT), ⅔ received MK-677 and ⅓ received placebo. At the end of year 1, the subjects who received placebo were switched to MK-677 treatment (N= 2/0 in year 2); subjects who received MK-677 for the first year were randomized to continue MK-677 (N=20) or to placebo (N=19).
Growth hormone (GH) concentrations and pulsatile characteristics. Blood samples were obtained every 10 minutes for 24 hours for measurement of GH in a sensitive chemiluminescence assay (2); endogenous GH secretory dynamics were assessed using an automated multiple-parameter deconvolution method as previously reported (1;3).
The primary outcome data for the 6- and 12-month changes in FFM and AVF as well as for IGF-I and GH were analyzed via repeated measures ANCOVA. The FFM and AVF data were analyzed on the same scale as they were measured, while the IGF-I and GH data were transformed to the natural logarithmic scale before conducting the statistical analyses so that the variance and normality assumptions of the linear model were not violated.
Since the FFM and AVF data were analyzed on the same scale as initially measured, the 6- and 12-month changes are reported as a difference between arithmetic means; changes in IGF-I and GH data analyzed on the natural algorithmic scale are reported as a ratio of geometric means.

[2] = Body water (TBW by deuterium dilution, ECW by bromide dilution, ICW by difference); format: in vivo, human; settings: 12 months; expressed per kg FFM
Method: Body Water. Total body water (TBW) was measured using the deuterium oxide (D2O) dilution technique ((8) and extracellular water (ECW) by bromide dilution (10). Intracellular water (ICW) was assessed as the difference between TBW and ECW. To determine the relative relationships of total-, extra- and intra-cellular water, each component (in kg) was expressed per kg of FFM at each time point.

**Q.** Which “24-h mean GH, mean (range) fold-change” value ([1]; 6 months) does the source give for `CC(C)(N)C(=O)N[C@H](COCc1ccccc1)C(=O)N1CCC2(CC1)CN(S(C)(=O)=O)c1ccccc12.CS(=O)(=O)O` [MK-677, N-[1(R)-[(1,2-dihydro-1-methanesulfonylspiro[3H-indole-3,4′-piperidin]-1′-yl)carbonyl]-2-(phenylmethyloxy)ethyl]-2-amino-2-methylpropanamide methanesulfonate] here?
**A.** 1.9 (1.6-2.2) fold

**Q.** And the “24-h mean GH level in a person” value ([1]; 6 months)?
**A.** 1.0 µg/L

**Q.** What about the “24-h mean GH, mean (range) fold-change” value ([1]; 12 months) of the same compound?
**A.** 1.8 (1.6-2.0) fold

**Q.** What about the “24-h mean GH level in a person” value ([1]; 12 months) of the same compound?
**A.** 0.86 µg/L

**Q.** What about the “Deconvolution analysis of the increase in GH” value ([1]; secretion per peak vs. peak frequency) of the same compound?
**A.** increased secretion per peak

**Q.** What about the “changes in TBW, ECW or ICW vs. placebo” value [2] of the same compound?
**A.** no significant changes
